According to ChEMBL document CHEMBL1909046, “DrugMatrix in vitro pharmacology data”:

Legend:
[1] = DRUGMATRIX: Calcium Channel Type L, Phenylalkylamine radioligand binding (ligand: [3H] (-)-Desmethoxyverapamil (D-888)); type: cell membranes, Rattus norvegicus, Wistar, Brain, Membrane; conditions: Not Active = under 50% inhibition at 10 µM
[2] = target: T1, C-X-C chemokine receptor type 1 (Homo sapiens, UniProt P25024); also: in other assays of this panel Not Active means under 50% inhibition at 10 µM
T1 sequence (P25024 whole entry): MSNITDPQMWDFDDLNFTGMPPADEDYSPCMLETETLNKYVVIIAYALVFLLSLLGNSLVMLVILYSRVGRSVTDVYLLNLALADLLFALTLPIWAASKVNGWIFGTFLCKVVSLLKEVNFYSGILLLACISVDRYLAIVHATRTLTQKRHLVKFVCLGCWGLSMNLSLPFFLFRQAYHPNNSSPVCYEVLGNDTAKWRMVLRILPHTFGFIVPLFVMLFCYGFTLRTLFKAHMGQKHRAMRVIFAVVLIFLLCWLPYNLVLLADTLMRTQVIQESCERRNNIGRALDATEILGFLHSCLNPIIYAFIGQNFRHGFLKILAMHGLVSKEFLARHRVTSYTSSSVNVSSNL

[3] = DRUGMATRIX: Imidazoline I2, Central radioligand binding (ligand: [3H] Idazoxan); type: cell membranes, Rattus norvegicus, Wistar, Cerebral cortex, Membrane; conditions: Not Active = under 50% inhibition at 10 µM
[4] = target: Melanocortin receptor 4 (Homo sapiens, UniProt P32245); type: cell membranes, Membrane; conditions: hek293; also: in other assays of this panel Not Active means under 50% inhibition at 10 µM
[5] = DRUGMATRIX: Phorbol Ester radioligand binding (ligand: [3H] PDBu); type: cell membranes, Mus musculus, ICR, Brain, Membrane; conditions: Not Active = under 50% inhibition at 10 µM
[6] = target: Mitogen-activated protein kinase 3 (Homo sapiens, UniProt P27361); experiment: DRUGMATRIX: Protein Serine/Threonine Kinase, ERK1 enzyme inhibition (substrate: Myelin Basic Protein); set-up: species or system Escherichia coli; conditions: Not Active = under 50% inhibition at 10 µM
[7] = target: Receptor tyrosine-protein kinase erbB-2 (Homo sapiens, UniProt P04626); experiment: biochemical; type: cell-based, Insect cells; conditions: insect cells;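 also: inhibition of HER2 kinase enzyme activity, measured with Poly(Glu:Tyr) as the phosphorylation substrate; in other assays of this panel Not Active means under 50% inhibition at 10 µM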
[8] = target: Estrogen receptor beta (Homo sapiens, UniProt Q92731); conditions: sf9; also: in other assays of this panel Not Active means under 50% inhibition at 10 µM
Chain of Estrogen receptor beta (Q92731 whole entry): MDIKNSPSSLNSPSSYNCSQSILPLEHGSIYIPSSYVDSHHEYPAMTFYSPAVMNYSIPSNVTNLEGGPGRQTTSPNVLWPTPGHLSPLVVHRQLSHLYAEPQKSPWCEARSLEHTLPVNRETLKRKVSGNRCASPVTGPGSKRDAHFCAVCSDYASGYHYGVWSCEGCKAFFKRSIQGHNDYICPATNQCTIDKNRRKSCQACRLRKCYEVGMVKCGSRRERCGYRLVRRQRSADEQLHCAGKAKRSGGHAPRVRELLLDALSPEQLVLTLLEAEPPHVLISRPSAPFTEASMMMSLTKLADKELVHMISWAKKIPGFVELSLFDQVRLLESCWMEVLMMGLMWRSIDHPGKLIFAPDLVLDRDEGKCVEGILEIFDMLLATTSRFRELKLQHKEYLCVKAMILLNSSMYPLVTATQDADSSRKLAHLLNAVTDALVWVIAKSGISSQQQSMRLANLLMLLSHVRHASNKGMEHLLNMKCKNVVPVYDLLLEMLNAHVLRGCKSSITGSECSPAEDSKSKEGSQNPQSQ

Chain of Mitogen-activated protein kinase 3 (P27361 whole entry): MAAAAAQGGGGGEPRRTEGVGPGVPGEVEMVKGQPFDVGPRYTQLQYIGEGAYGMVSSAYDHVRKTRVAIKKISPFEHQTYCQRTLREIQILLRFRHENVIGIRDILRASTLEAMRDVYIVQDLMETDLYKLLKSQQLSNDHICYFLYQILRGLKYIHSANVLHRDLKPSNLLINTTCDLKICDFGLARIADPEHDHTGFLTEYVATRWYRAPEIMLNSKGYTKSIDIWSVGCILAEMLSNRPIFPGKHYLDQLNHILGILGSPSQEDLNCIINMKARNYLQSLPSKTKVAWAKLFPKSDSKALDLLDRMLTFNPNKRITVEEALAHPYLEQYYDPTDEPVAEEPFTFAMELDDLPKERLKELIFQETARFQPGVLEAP
Chain of Melanocortin receptor 4 (P32245 whole entry): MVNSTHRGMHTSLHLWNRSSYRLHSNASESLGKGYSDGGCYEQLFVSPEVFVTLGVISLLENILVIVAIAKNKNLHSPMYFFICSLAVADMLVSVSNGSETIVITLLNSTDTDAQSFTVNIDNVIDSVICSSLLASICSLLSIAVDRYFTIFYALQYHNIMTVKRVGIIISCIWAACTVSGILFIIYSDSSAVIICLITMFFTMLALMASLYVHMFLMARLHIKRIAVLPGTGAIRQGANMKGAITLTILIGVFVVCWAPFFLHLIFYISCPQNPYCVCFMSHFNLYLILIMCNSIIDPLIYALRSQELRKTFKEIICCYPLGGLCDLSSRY
Chain of Receptor tyrosine-protein kinase erbB-2 (P04626 whole entry): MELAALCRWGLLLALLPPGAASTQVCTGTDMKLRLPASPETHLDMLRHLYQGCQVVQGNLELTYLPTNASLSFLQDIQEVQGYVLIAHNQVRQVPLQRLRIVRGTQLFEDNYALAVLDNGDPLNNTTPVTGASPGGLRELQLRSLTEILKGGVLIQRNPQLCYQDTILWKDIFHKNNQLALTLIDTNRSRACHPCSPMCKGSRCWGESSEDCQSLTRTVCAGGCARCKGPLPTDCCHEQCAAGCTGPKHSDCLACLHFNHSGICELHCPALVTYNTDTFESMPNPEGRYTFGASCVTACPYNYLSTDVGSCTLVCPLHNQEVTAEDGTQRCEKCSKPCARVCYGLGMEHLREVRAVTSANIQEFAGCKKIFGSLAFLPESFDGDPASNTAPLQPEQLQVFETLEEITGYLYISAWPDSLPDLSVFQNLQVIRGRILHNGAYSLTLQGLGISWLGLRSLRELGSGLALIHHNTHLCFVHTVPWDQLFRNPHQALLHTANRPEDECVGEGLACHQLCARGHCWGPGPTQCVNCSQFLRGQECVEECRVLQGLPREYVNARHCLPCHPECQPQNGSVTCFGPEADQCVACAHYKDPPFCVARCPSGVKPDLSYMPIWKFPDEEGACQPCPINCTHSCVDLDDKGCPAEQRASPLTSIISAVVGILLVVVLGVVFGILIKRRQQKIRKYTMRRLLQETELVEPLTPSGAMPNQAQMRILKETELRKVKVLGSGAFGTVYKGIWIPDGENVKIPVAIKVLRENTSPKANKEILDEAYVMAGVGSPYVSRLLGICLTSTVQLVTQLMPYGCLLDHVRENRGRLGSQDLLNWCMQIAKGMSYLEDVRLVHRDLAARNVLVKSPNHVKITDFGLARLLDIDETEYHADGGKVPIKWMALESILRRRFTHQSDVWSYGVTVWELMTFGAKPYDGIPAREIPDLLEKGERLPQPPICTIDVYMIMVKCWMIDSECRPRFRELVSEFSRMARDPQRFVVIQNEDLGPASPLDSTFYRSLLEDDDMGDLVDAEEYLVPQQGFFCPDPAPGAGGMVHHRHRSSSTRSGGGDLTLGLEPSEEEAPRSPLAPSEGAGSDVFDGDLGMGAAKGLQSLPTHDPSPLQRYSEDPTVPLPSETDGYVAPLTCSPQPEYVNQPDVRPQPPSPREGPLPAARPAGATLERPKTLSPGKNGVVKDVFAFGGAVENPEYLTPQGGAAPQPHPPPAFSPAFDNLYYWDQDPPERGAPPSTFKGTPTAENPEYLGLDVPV

NC(=O)NO [HYDROXYUREA]
Not Active: IC50 [1] | Ki [1] | IC50 [2] | IC50 [3] | Ki [3] | IC50 [4] | IC50 [5] | Ki [5] | IC50 [6] | IC50 [7] | IC50 [8]

CC(C)Cc1ccc(C(C)C(=O)O)cc1 (configuration not stated) [IBUPROFEN]
Not Active: IC50 [1] | Ki [1] | IC50 [2] | IC50 [3] | Ki [3] | IC50 [4] | IC50 [5] | Ki [5] | IC50 [6] | IC50 [7] | IC50 [8]

CCc1c2c(nc3ccc(OC(=O)N4CCC(N5CCCCC5)CC4)cc13)-c1cc3c(c(=O)n1C2)COC(=O)[C@]3(O)CC [IRINOTECAN]
Not Active: IC50 [1] | Ki [1] | IC50 [2] | IC50 [3] | Ki [3] | IC50 [4] | IC50 [5] | Ki [5] | IC50 [6] | IC50 [7] | IC50 [8]

CC(C(=O)O)c1cccc(C(=O)c2ccccc2)c1 (configuration not stated) [KETOPROFEN]
Not Active: IC50 [1] | Ki [1] | IC50 [2] | IC50 [3] | Ki [3] | IC50 [4] | IC50 [5] | Ki [5] | IC50 [6] | IC50 [7] | IC50 [8]

Nc1ccn([C@@H]2CS[C@H](CO)O2)c(=O)n1 [LAMIVUDINE]
Not Active: IC50 [1] | Ki [1] | IC50 [2] | IC50 [3] | Ki [3] | IC50 [4] | IC50 [5] | Ki [5] | IC50 [6] | IC50 [7] | IC50 [8]

O=S(=O)([O-])CCS.[Na+] [MESNA]
Not Active: IC50 [1] | Ki [1] | IC50 [2] | IC50 [3] | Ki [3] | IC50 [4] | IC50 [5] | Ki [5] | IC50 [6] | IC50 [7] | IC50 [8]

CC(=O)Nc1cccc(O)c1 [METACETAMOL]
Not Active: IC50 [1] | Ki [1] | IC50 [2] | IC50 [3] | Ki [3] | IC50 [4] | IC50 [5] | Ki [5] | IC50 [6] | IC50 [7] | IC50 [8]

Oc1ccc(OCc2ccccc2)cc1 [MONOBENZONE]
Not Active: IC50 [1] | Ki [1] | IC50 [2] | IC50 [3] | Ki [3] | IC50 [4] | IC50 [5] | Ki [5] | IC50 [6] | IC50 [7] | IC50 [8]

CC(C)(Oc1ccc(C2CCCc3ccccc32)cc1)C(=O)O (configuration not stated) [NAFENOPIN]
Not Active: IC50 [1] | Ki [1] | IC50 [2] | IC50 [3] | Ki [3] | IC50 [4] | IC50 [5] | Ki [5] | IC50 [6] | IC50 [7] | IC50 [8]

CC(C)[C@H]1CC[C@H](C(=O)N[C@H](Cc2ccccc2)C(=O)O)CC1 [NATEGLINIDE]
Not Active: IC50 [1] | Ki [1] | IC50 [2] | IC50 [3] | Ki [3] | IC50 [4] | IC50 [5] | Ki [5] | IC50 [6] | IC50 [7] | IC50 [8]

CCN[C@@H]1C[C@H](N)[C@@H](O[C@H]2OC(CN)=CC[C@H]2N)[C@H](O)[C@H]1O[C@H]1OC[C@](C)(O)[C@H](NC)[C@H]1O [NETILMICIN]
Not Active: IC50 [1] | Ki [1] | IC50 [2] | IC50 [3] | Ki [3] | IC50 [4] | IC50 [5] | Ki [5] | IC50 [6] | IC50 [7] | IC50 [8]

CCOC(=O)C1=C(C)NC(C)=C(C(=O)OC)C1c1cccc([N+](=O)[O-])c1 (configuration not stated) [NITRENDIPINE]
Not Active: IC50 [1] | Ki [1] | IC50 [2] | IC50 [3] | Ki [3] | IC50 [4] | IC50 [5] | Ki [5] | IC50 [6] | IC50 [7] | IC50 [8]
